# ChEMBL document CHEMBL2046382, “Synthesis, biological evaluation of 5-carbomethoxymethyl-7-hydroxy-2-pentylchromone, 5-carboethoxymethyl-4',7-dihydroxyflavone and their analogues” (Bioorg Med Chem Lett, 2012)
# Activity calls are given as the source filed them. No cut-off for these calls is given here.
# System: Staphylococcus aureus
# Experiment: Antibacterial activity against Staphylococcus aureus MTCC 2940 at 80 ug/ml by modified microtiter broth dilution method
# Assay type: functional, organism-based
# Conditions: not given
row,SMILES,Activity
1,COC(=O)Cc1cc(O)cc2oc(-c3cc(O)ccc3O)cc(=O)c12,inactive
2,COC(=O)Cc1cc(O)cc2oc(-c3ccc(O)cc3O)cc(=O)c12,inactive
3,COC(=O)Cc1cc(O)cc2occc(=O)c12,inactive
4,COC(=O)Cc1cc(O)cc2oc(-c3ccc(N)cc3)cc(=O)c12,inactive

# System: Bacillus subtilis
# Experiment: Antibacterial activity against Bacillus subtilis MTCC 121 by modified microtiter broth dilution method
# Assay type: functional
# Conditions: not given
row,SMILES,MIC [µg/mL]
1,COC(=O)Cc1cc(O)cc2oc(-c3ccc(N)cc3)cc(=O)c12,9

# System: Bacillus subtilis
# Experiment: Antibacterial activity against Bacillus subtilis MTCC 121 at 80 ug/ml by modified microtiter broth dilution method
# Assay type: functional, organism-based
# Conditions: not given
row,SMILES,Activity
1,COC(=O)Cc1cc(O)cc2oc(-c3cc(O)ccc3O)cc(=O)c12,inactive
2,COC(=O)Cc1cc(O)cc2oc(-c3ccc(O)cc3O)cc(=O)c12,inactive

# System: Staphylococcus aureus
# Experiment: Antibacterial activity against Staphylococcus aureus MTCC 96 at 80 ug/ml by modified microtiter broth dilution method
# Assay type: functional, organism-based
# Conditions: not given
row,SMILES,Activity
1,COC(=O)Cc1cc(O)cc2oc(-c3cc(O)ccc3O)cc(=O)c12,inactive
2,COC(=O)Cc1cc(O)cc2oc(-c3ccc(O)cc3O)cc(=O)c12,inactive
3,COC(=O)Cc1cc(O)cc2occc(=O)c12,inactive
4,COC(=O)Cc1cc(O)cc2oc(-c3ccc(N)cc3)cc(=O)c12,inactive

# System: Micrococcus luteus
# Experiment: Antibacterial activity against Micrococcus luteus MTCC 2470 by modified microtiter broth dilution method
# Assay type: functional
# Conditions: not given
row,SMILES,MIC [µg/mL]
1,COC(=O)Cc1cc(O)cc2oc(-c3cc(O)ccc3O)cc(=O)c12,37

# System: Micrococcus luteus
# Experiment: Antibacterial activity against Micrococcus luteus MTCC 2470 at 80 ug/ml by modified microtiter broth dilution method
# Assay type: functional, organism-based
# Conditions: not given
row,SMILES,Activity
1,COC(=O)Cc1cc(O)cc2oc(-c3ccc(O)cc3O)cc(=O)c12,inactive
2,COC(=O)Cc1cc(O)cc2occc(=O)c12,inactive
3,COC(=O)Cc1cc(O)cc2oc(-c3ccc(N)cc3)cc(=O)c12,inactive

# System: Raoultella planticola
# Experiment: Antibacterial activity against Klebsiella planticola MTCC 530 at 80 ug/ml by modified microtiter broth dilution method
# Assay type: functional, organism-based
# Conditions: not given
row,SMILES,Activity
1,COC(=O)Cc1cc(O)cc2oc(-c3cc(O)ccc3O)cc(=O)c12,inactive
2,COC(=O)Cc1cc(O)cc2oc(-c3ccc(O)cc3O)cc(=O)c12,inactive
3,COC(=O)Cc1cc(O)cc2occc(=O)c12,inactive
4,COC(=O)Cc1cc(O)cc2oc(-c3ccc(N)cc3)cc(=O)c12,inactive

# System: Escherichia coli
# Experiment: Antibacterial activity against Escherichia coli MTCC 739 by modified microtiter broth dilution method
# Assay type: functional
# Conditions: not given
row,SMILES,MIC [µg/mL]
1,COC(=O)Cc1cc(O)cc2oc(-c3cc(O)ccc3O)cc(=O)c12,18

# System: Escherichia coli
# Experiment: Antibacterial activity against Escherichia coli MTCC 739 at 80 ug/ml by modified microtiter broth dilution method
# Assay type: functional, organism-based
# Conditions: not given
row,SMILES,Activity
1,COC(=O)Cc1cc(O)cc2oc(-c3ccc(O)cc3O)cc(=O)c12,inactive
2,COC(=O)Cc1cc(O)cc2occc(=O)c12,inactive
3,COC(=O)Cc1cc(O)cc2oc(-c3ccc(N)cc3)cc(=O)c12,inactive

# System: Pseudomonas aeruginosa
# Experiment: Antibacterial activity against Pseudomonas aeruginosa MTCC 2453 by modified microtiter broth dilution method
# Assay type: functional
# Conditions: not given
row,SMILES,MIC [µg/mL]
1,COC(=O)Cc1cc(O)cc2oc(-c3cc(O)ccc3O)cc(=O)c12,18
2,COC(=O)Cc1cc(O)cc2oc(-c3ccc(O)cc3O)cc(=O)c12,9

# System: Pseudomonas aeruginosa
# Experiment: Antibacterial activity against Pseudomonas aeruginosa MTCC 2453 at 80 ug/ml by modified microtiter broth dilution method
# Assay type: functional, organism-based
# Conditions: not given
row,SMILES,Activity
1,COC(=O)Cc1cc(O)cc2occc(=O)c12,inactive
2,COC(=O)Cc1cc(O)cc2oc(-c3ccc(N)cc3)cc(=O)c12,inactive

# System: Radical scavenging activity
# Experiment: Antioxidant activity assessed as DPPH free radical scavenging activity
# Assay type: functional
# Conditions: not given
row,SMILES,EC50 [µg/mL]
1,COC(=O)Cc1cc(O)cc2oc(-c3cc(O)ccc3O)cc(=O)c12,119.11
2,COC(=O)Cc1cc(O)cc2oc(-c3ccc(O)cc3O)cc(=O)c12,60
3,O=C1O[C@H]([C@@H](O)CO)C(O)=C1O [ASCORBIC ACID],40.28

# System: not listed separately
# Experiment: Antioxidant activity assessed as superoxide radical scavenging activity
# Assay type: functional
# Conditions: not given
row,SMILES,EC50 [µg/mL]
1,COC(=O)Cc1cc(O)cc2oc(-c3cc(O)ccc3O)cc(=O)c12,106.22
2,COC(=O)Cc1cc(O)cc2oc(-c3ccc(O)cc3O)cc(=O)c12,60.9
3,O=C1O[C@H]([C@@H](O)CO)C(O)=C1O [ASCORBIC ACID],21.01

# System: not listed separately
# Experiment: Antioxidant activity of the compound assessed as inhibition of lipid peroxidation
# Assay type: functional
# Conditions: not given
row,SMILES,EC50
1,COC(=O)Cc1cc(O)cc2oc(-c3cc(O)ccc3O)cc(=O)c12,221.12 µg/mL
2,COC(=O)Cc1cc(O)cc2oc(-c3ccc(O)cc3O)cc(=O)c12,Not Active
3,O=C1O[C@H]([C@@H](O)CO)C(O)=C1O [ASCORBIC ACID],139.97 µg/mL

# System: not listed separately
# Experiment: Antioxidant activity in erythrocytes assessed as inhibition of hemolysis
# Assay type: functional, cell-based
# Conditions: erythrocyte
row,SMILES,EC50
1,COC(=O)Cc1cc(O)cc2oc(-c3cc(O)ccc3O)cc(=O)c12,209.56 µg/mL
2,COC(=O)Cc1cc(O)cc2oc(-c3ccc(O)cc3O)cc(=O)c12,Not Active
3,O=C1O[C@H]([C@@H](O)CO)C(O)=C1O [ASCORBIC ACID],119.87 µg/mL

# System: Radical scavenging activity
# Experiment: Antioxidant activity assessed as DPPH free radical scavenging activity after 48 hrs
# Assay type: functional
# Conditions: not given
row,SMILES,Activity
1,COC(=O)Cc1cc(O)cc2oc(-c3cc(O)ccc3O)cc(=O)c12,inactive
2,COC(=O)Cc1cc(O)cc2occc(=O)c12,inactive
3,COC(=O)Cc1cc(O)cc2oc(-c3ccc(N)cc3)cc(=O)c12,inactive

# System: not listed separately
# Experiment: Antioxidant activity assessed as superoxide radical scavenging activity after 48 hrs
# Assay type: functional
# Conditions: not given
row,SMILES,Activity
1,COC(=O)Cc1cc(O)cc2oc(-c3cc(O)ccc3O)cc(=O)c12,inactive
2,COC(=O)Cc1cc(O)cc2occc(=O)c12,inactive
3,COC(=O)Cc1cc(O)cc2oc(-c3ccc(N)cc3)cc(=O)c12,inactive

# System: not listed separately
# Experiment: Antioxidant activity of the compound assessed as inhibition of lipid peroxidation after 48 hrs
# Assay type: functional
# Conditions: not given
row,SMILES,Activity
1,COC(=O)Cc1cc(O)cc2oc(-c3cc(O)ccc3O)cc(=O)c12,inactive
2,COC(=O)Cc1cc(O)cc2occc(=O)c12,inactive
3,COC(=O)Cc1cc(O)cc2oc(-c3ccc(N)cc3)cc(=O)c12,inactive

# System: Erythrocyte
# Experiment: Antioxidant activity in erythrocytes assessed as inhibition of hemolysis after 48 hrs
# Assay type: functional, cell-based
# Conditions: not given
row,SMILES,Activity
1,COC(=O)Cc1cc(O)cc2oc(-c3cc(O)ccc3O)cc(=O)c12,inactive
2,COC(=O)Cc1cc(O)cc2occc(=O)c12,inactive
3,COC(=O)Cc1cc(O)cc2oc(-c3ccc(N)cc3)cc(=O)c12,inactive

# System: not listed separately
# Experiment: Chemical stability of the compound in antioxidant reaction
# Assay type: physicochemical
# Conditions: not given
row,SMILES,Stability
1,COC(=O)Cc1cc(O)cc2oc(-c3cc(O)ccc3O)cc(=O)c12,Unstable
2,COC(=O)Cc1cc(O)cc2occc(=O)c12,Unstable
3,COC(=O)Cc1cc(O)cc2oc(-c3ccc(N)cc3)cc(=O)c12,Unstable

# System: NCI60
# Experiment: Cytotoxicity against human NCI60 cells
# Assay type: functional, cell-based
# Conditions: not given
row,SMILES,Activity
1,COC(=O)Cc1cc(O)cc2oc(-c3ccc(N)cc3)cc(=O)c12,inactive
